According to patent US20190381128A1, “GLP-1 Secretagogue and Composition” (MORINAGA MILK INDUSTRY CO., LTD., priority 2017, published 2019):

Tests used:
GLUTag cells [1] = assay: GLP-1 secretion cell assay using GLUTag cells (ELISA of culture supernatant); type: cell-based, mouse; settings: for GLP-1 secretion stimulating activity on GLUTag cells, ratio to blank group: Table 8; for GLP-1 secretion stimulating activity in comparison with the blank group: Dunnett t-test
GLUTag cells [2] = assay: as above; type: cell-based, mouse
Procedure: Each sample was dissolved in Milli Q water and a solution having a protein concentration of 7.5 mg/mL was prepared by the Bradford method. The solution was adjusted to pH 2.0, which is the same pH as in the human stomach, with a 1 mol/L hydrochloric acid, then pepsin (Pep, Sigma-Aldrich; in 1 mM HCL) was added in an amount of 1/12.5 (w/w) relative to the proteins, and the mixture was shaken in a 37° C. thermostat at 140 rpm for 30 minutes. Then, the pH was adjusted to 7.0 with a 1 mol/L sodium hydrogen carbonate solution to stop the digestion reaction of pepsin. Subsequently, pancreatin (Pan, Sigma-Aldrich; in 0.1 M NaHCO3) was added in an amount of 1/62.5 (w/w) relative to the proteins, and the mixture was shaken in a 37° C. thermostat at 140 rpm for a desired time (5 minutes, 10 minutes, 15 minutes, 30 minutes, 45 minutes, 60 minutes, 120 minutes, or overnight). After that, with heat at 90° C. for 3 minutes, the digestion reaction by pancreatin was stopped. The solution after digestion was lyophilized and stored at 4° C. The digestion reactions simulated the state of digestion that a micellar casein and various casein materials taken in the body undergo in the gastrointestinal tract.
GLUTag cells (see, for example, Food Funct., 2015, vol. 6, p. 2525-2534) were cultured on a culture medium containing 10% fetal bovine serum (Dulbecco's modified Eagle's medium (DMEM), GIBCO) at 37° C. in a 5% CO2 incubator for 2 to 3 days into a subconfluent layer. Then, the culture medium was removed, and the cells were suspended twice with HEPES buffer (20 mM HEPES(Sigma), 140 mM NaCl (Wako), 4.5 mM KCl (Wako), 10 mM Glucose (Wako), 1.2 mM MgCl2 (Wako), 1.2 mM CaCl2 (Wako), 0.1% BSA (Sigma), pH7.4).
The lyophilized sample of (1) was dissolved with HEPES buffer so as to give a concentration of 5 mg/mL, and 80 μL of the resulting solution was added to each well of a 48-well culture plate containing the GLUTag cells cultured therein and the cells were incubated at 37° C. for […]. After the treatment, the culture supernatant was collected and was subjected to centrifugation at 800 g at 4° C. for 5 minutes and the resulting supernatant was stored at −80° C. as an ELISA measurement sample. The amount of GLP-1 in the supernatant was measured using ELISA (Millipore) according to a protocol recommended by the manufacturer. The amount of GLP-1 was represented as a relative amount to 100% of that of a group treated only with HEPES buffer (blank group). The number of samples was always three (n=3).
The lyophilized sample of (1) was subjected to an assay using GLUTag cells by the same method and conditions as in Example 1 and the amount of GLP-1 secreted was represented as a relative amount to 100% of that of a blank group. The number of samples was always three (n=3).
The lyophilized sample of (1) was subjected to an assay using GLUTag cells by the same method and conditions as in Example 1, and the amount of GLP-1 secreted was measured as a relative amount to 100% of that of a blank group, provided that the digested product of the κ-casein material sample was diluted at a concentration of 5 mg/mL or 0.5 mg/mL in dissolution in HEPES buffer. A glycomacropeptide (CGMP: from Arla) was also provided as a sample and the standard sample was dissolved as it was in HEPES buffer at a concentration of […]. In the assay, GLUTag cells obtained through depolarizing stimulation with 70 mM KCl were used as a positive control. The amount of GLP-1 secreted was represented as a relative amount to 100% of that of a blank group. The number of samples was always three or four (n=3 to 4).
The lyophilized sample of (1) was subjected to an assay using GLUTag cells by the same method and conditions as in Example 1, and the amount of GLP-1 secreted was represented as a relative amount to 100% of that of a blank group. The number of samples was always three (n=3). […]

[3] = synthesized peptide 1 mM in HEPES buffer
[4] = synthesized peptide 5 mM in HEPES buffer

Row | Substance | GLP-1 secretion stimulating activity on GLUTag cells, ratio to blank group (GLUTag cells [1]; [3]) | GLP-1 secretion stimulating activity on GLUTag cells, ratio to blank group (GLUTag cells [1]; [4]) | further results
1 | GPVRGPFPIIV (peptide 1) [SEQ ID NO: 1, peptide fragment detected in micellar casein digested product, synthesized] | 126.0% | 254.8 (*) % | GLP-1 secretion stimulating activity in comparison with the blank group (GLUTag cells [1]; peptide 5 mM): significantly higher
2 | Glycomacropeptide |  |  | GLP-1 secretion stimulating activity on GLUTag cells, ratio to blank group (GLUTag cells [2]; Table 4, non-degraded (glycomacropeptide dissolved as it was in HEPES buffer)): 81.8%
3 | HIQKEDVPSE (peptide 2) [SEQ ID NO: 2, peptide fragment detected in micellar casein digested product, synthesized] | 141.8% | 200.5 (*) % | GLP-1 secretion stimulating activity in comparison with the blank group (GLUTag cells [1]; peptide 5 mM): significantly higher
4 | HQGLPQEVLNE (peptide 4) [SEQ ID NO: 4, peptide fragment detected in micellar casein digested product, synthesized] | 158.9% | 115.6% | 
5 | LEDSPEVIESPPEINT (peptide 5) [SEQ ID NO: 5, peptide fragment detected in micellar casein digested product, synthesized] | 133.9% | 136.9% | 
6 | SRYPSYGLN (peptide 6) [SEQ ID NO: 6, peptide fragment found in both micellar casein hydrolysate and casein hydrolysate, synthesized] | 123.6% | 149.7% | 
7 | YPVEPFTESQ (peptide 3) [SEQ ID NO: 3, peptide fragment detected in micellar casein digested product, synthesized] | 168.7 (*) % | 143.5% | GLP-1 secretion stimulating activity in comparison with the blank group (GLUTag cells [1]; peptide 1 mM): significantly higher
8 | YQKFPQYL (peptide 7) [SEQ ID NO: 7, peptide fragment found in both micellar casein hydrolysate and casein hydrolysate, synthesized] | 160.8% | 87.1% | 
9 | κ-Casein: κ-casein from bovine milk (from Sigma-Aldrich) |  |  | GLP-1 secretion stimulating activity on GLUTag cells, ratio to blank group (GLUTag cells [2]; Table 3, non-degraded, 0.5 mg/ml): 115.6 (c) %; GLP-1 secretion stimulating activity on GLUTag cells, ratio to blank group (GLUTag cells [2]; Table 3, non-degraded, 5 mg/ml): 176.5 (b) %; GLP-1 secretion stimulating activity on GLUTag cells, ratio to blank group (GLUTag cells [2]; Table 3, pep + pan30, 0.5 mg/ml): 140.9 (c) %; GLP-1 secretion stimulating activity on GLUTag cells, ratio to blank group (GLUTag cells [2]; Table 3, pep + pan30, 5 mg/ml): 225.2 (b) %; GLP-1 secretion stimulating activity on GLUTag cells, ratio to blank group (GLUTag cells [2]; Table 3, pep + pan60, 0.5 mg/ml): 149.2 (b) %; GLP-1 secretion stimulating activity on GLUTag cells, ratio to blank group (GLUTag cells [2]; Table 3, pep + pan60, 5 mg/ml): 216.2 (b) %; GLP-1 secretion stimulating activity on GLUTag cells, ratio to blank group (GLUTag cells [2]; Table 3, pep only, 0.5 mg/ml): 150.5 (c) %; GLP-1 secretion stimulating activity on GLUTag cells, ratio to blank group (GLUTag cells [2]; Table 3, pep only, 5 mg/ml): 261.8 (b) %
